Data taken from patent US6613794B2, “Hydroxyindoles, their use as inhibitors of phosphodiesterase 4 and processes for their preparation” (Arzneimittelwerk Dresden GmbH, priority 1998, dated 2003).

Assays:
[1] = test system: LPS-induced pulmonary neutrophil infiltration; assay: LPS-induced pulmonary neutrophil infiltration in ferrets; type: in vivo; details: for inhibition of LPS-induced neutrophilia: powder with lactose, 2 hours before LPS
Description: The inhibition of lipopolysaccharide (LSP)-induced pulmonary neutrophil infiltration by the substance is investigated in an in vivo test on male ferrets (0.6-2 kg). The experimental animals are anaesthetized with pentobarbital sodium (40 mg/kg of body weight i.p.), placed individually into a closed nebulization box of 5 l capacity and exposed to an ultrasonically nebulized aerosol of 0.01% strength LPS (lipopolysaccharide) solution (additionally 0.1% hydroxylamine in PBS) for 10 minutes. The aerosol is generated by a nebulizer driven with compressed air (0.2 Mpa). Control animals are treated with an aerosol of physiological saline solution. The animals are observed during the entire process and removed from the nebulization box after admission of fresh air. On inhalation, nebulized LPS immediately induces inflammation of the airways, which is characterized by a massive infiltration of neutrophilic granulocytes into the lungs of the experimental animals. The neutrophilia achieves its maximum 4 to 6 hours after LPS exposure. In order to be able to measure the number of infiltrated neutrophilic granulocytes, the animals are anaesthetized with an overdose of ethylurethane (1.5 g/kg of body weight i.p.) 6 hours after LPS provocation and a bronchoalveolar lavage (BAL) is carried out using 2×10 ml of physiological saline solution. The number of cells in the pooled original BAL fluid (100 μl) are determined using the automatic cell-counting apparatus sold by Bayer Diagnostic under the trade designation Technicon HIE and the different leucocytes per μl are differentiated. In each test, 2 control groups (nebulization with physiological saline solution or with LPS solution) are included. Substances having anti-inflammatory activity, particularly those which affect TNFα release or the function of the neutrophilic granulocytes, inhibit the infiltration of leucocytes. The inhibition of infiltration is determined by the comparison of the number of infiltrated neutrophils in untreated experimental animals (with and without LPS provocation).
For intrapulmonary administration, the trachea of the animals is opened under anaesthesia with 40 mg/kg i.p. of pentobarbital sodium, 3% strength, 1.3 ml/kg, a 7 cm-long PVC catheter is tied in and the test substances are administered intrapulmonarily in powder form (mixed with lactose to 20 mg/kg) by means of a syringe 2 hours before LPS provocation. The intrapulmonary administration of Example 1 in doses of 1, 3 and 10 mg/kg inhibits LPS-induced neutrophilia in a dose-dependent manner (43%, 65% and 100%).

[2] = test system: LPS-induced TNFα release in human blood; assay: LPS-induced TNFα release in human blood; type: cell-based; details: human blood diluted 1:5, LPS 10 μg/ml, 24 hours
Description: The stimulation of isolated leucocytes to cytokine release can take place in various ways. Lipopolysaccharides (LPSs) are a stimulus suitable for the investigation of TNFα release. LPS is a constituent of the bacterial cell walls and is released by killing the bacteria (antibiotics or immune system). LPS particularly stimulates the activity of the phagocytizing leucocytes (tissue macrophages, granulocytes, monocytes) and causes the infiltration of leucocytes from the blood stream into the affected tissue. A cytokine important for these mechanisms is TNFα, which is secreted in large amounts by the affected cells (the monocytes and macrophages are the main source) and initiates and maintains inflammation alongside other mediators.
For the investigation of the effect on LPS-induced TNFα release, human blood was obtained from various donors (inhibition of coagulation by means of citrate) and diluted 1:5 with RPMI 1640 cell culture medium. The test substances were added to the samples in various concentrations before the LPS challenge. […] After incubation of the test batches for 24 hours at 37° C. and under 5% CO2 in an incubator, the diluted blood was centrifuged and the TNFα concentration in the cell-free supernatant was measured by means of ELISA.

[3] = test system: LPS-induced pulmonary neutrophilia; assay: LPS-induced pulmonary neutrophilia in domestic pigs; type: in vivo; details: intrapulmonary administration of 10 mg/animal
Description: Pulmonary neutrophilia can be induced with LPS in domestic pigs in a manner similar to that in the ferret. The animals are anaesthetized with pentobarbital 10 mg/kg i.v., and intubated. Using a bronchoscope, a partial bronchoalveolar lavage is carried out in order to determine the proportion of neutrophilic granulocytes under physiological conditions. The test substance is then administered and the animals inhale an ultrasonically nebulized aerosol of 0.03% strength LPS (lipopolysaccharide) solution (additionally 0.1% hydroxylamine in PBS) through the tracheal tube for 20 min. The inhaled LPS induces a reactive inflammation of the airways and neutrophilic granulocytes infiltrate on a huge scale. The neutrophilia achieves its maximum 4 to 6 hours after LPS exposure. After 6 hours, the bronchoalveolar lavage is repeated and the increase in the neutrophil count is determined arithmetically.

O=C(Nc1c(Cl)cccc1Cl)C(=O)c1cn(Cc2ccc(F)cc2)c2ccc(O)cc12
melting point: 216 to 218 °C

O=C(Nc1c(Cl)cc(C(F)(F)F)cc1Cl)C(=O)c1cn(Cc2ccc(F)cc2)c2ccc(O)cc12
melting point: 199 to 201 °C

O=C(Nc1c(Cl)cc(OC(F)(F)F)cc1Cl)C(=O)c1cn(Cc2ccc(F)cc2)c2ccc(O)cc12
melting point: 176 to 178 °C

O=C(Nc1c(Cl)cncc1Cl)C(=O)c1cn(Cc2ccc(F)cc2)c2cc(O)ccc12
melting point: 212 to 213 °C

COc1ccc(Cn2cc(C(=O)Nc3c(Cl)cncc3Cl)c3cc(O)ccc32)cc1
melting point: 239 to 241 °C

O=C(Nc1c(Cl)cncc1Cl)C(=O)c1cn(Cc2c(F)cccc2F)c2ccc(O)cc12
melting point: 266 to 268 °C

CCCn1cc(C(=O)C(=O)Nc2c(Cl)cncc2Cl)c2cc(O)ccc21
melting point: 280 to 282 °C

CC(C)n1cc(C(=O)C(=O)Nc2c(Cl)cncc2Cl)c2cc(O)ccc21
melting point: 245 to 247 °C

O=C(Nc1c(Cl)cncc1Cl)C(=O)c1cn(CC2CCCC2)c2ccc(O)cc12
melting point: 246 to 248 °C

O=C(Nc1c(Cl)cncc1Cl)C(=O)c1cn(Cc2ccc(F)cc2)c2ccc(O)cc12 [Example 1, N-(3,5-Dichloropyridin-4-yl)-2-[1-(4-fluorobenzyl)-5-hydroxyindol-3-yl]-2-oxoacetamide]
inhibition of neutrophilia in the BAL ([1]; 1 mg/kg i.p.): 18% | inhibition of LPS-induced neutrophilia ([1]; 1 mg/kg intrapulmonary): 43% | inhibition of neutrophilia in the BAL ([1]; 3 mg/kg i.p.): 64% | inhibition of LPS-induced neutrophilia ([1]; 3 mg/kg intrapulmonary): 65% | inhibition of neutrophilia in the BAL ([1]; 10 mg/kg i.p.): 78% | inhibition of LPS-induced neutrophilia ([1]; 10 mg/kg intrapulmonary): 100% | ID50, inhibition of LPS-induced neutrophilia in BAL ([1]; i.p., 2 hours before LPS provocation): 2.4 mg/kg | ID50, inhibition of LPS-induced neutrophilia ([1]; intrapulmonary administration (printed i.palm.)): 1.65 mg/kg | IC50 [2]: 0.8 µM | inhibition of LPS-induced pulmonary neutrophilia [3]: 51%

COc1ccc(C(=O)Nc2c(Cl)cncc2Cl)cc1OC1CCCC1 [RPR-73401, reference compound]
inhibition of neutrophilia in the BAL ([1]; 1 mg/kg i.p.): 49%

COc1ccc([C@]2(C#N)CC[C@@H](C(=O)O)CC2)cc1OC1CCCC1 [SB 207499, reference compound]
IC50 [2]: 7 µM
